Where “and” joins values, the source holds several entries; their conditions need not be identical. Identical values can stand only once.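 Assay format: 96-well plates, 48-hour exposure. GI50 is the concentration that inhibits growth by half. The concentration for full growth arrest is given as TGI.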
Key:
Test in all cases: NCI-60 cell line screen, 48 h
HCT-15 colon = tested on: HCT-15 colon
CAKI-1 renal = tested on: CAKI-1 renal
UO-31 renal = tested on: UO-31 renal
SNB-19 CNS = tested on: SNB-19 CNS
MOLT-4 leukemia = tested on: MOLT-4 leukemia
EKVX NSCLC = tested on: EKVX NSCLC
UACC-62 melanoma = tested on: UACC-62 melanoma
NCI-H226 lung = tested on: NCI-H226 lung
NCI/ADR-RES ovarian = tested on: NCI/ADR-RES ovarian
TK-10 renal = tested on: TK-10 renal

Row | Compound | GI50 (HCT-15 colon) [µM] | TGI (HCT-15 colon) | GI50 (CAKI-1 renal) [µM] | TGI (CAKI-1 renal) | GI50 (UO-31 renal) [µM] | TGI (UO-31 renal) | GI50 (SNB-19 CNS) [µM] | TGI (SNB-19 CNS) | GI50 (MOLT-4 leukemia) [µM] | TGI (MOLT-4 leukemia) | GI50 (EKVX NSCLC) [µM] | TGI (EKVX NSCLC) | GI50 (UACC-62 melanoma) [µM] | TGI (UACC-62 melanoma) | GI50 (NCI-H226 lung) [µM] | TGI (NCI-H226 lung) | GI50 (NCI/ADR-RES ovarian) [µM] | TGI (NCI/ADR-RES ovarian) | GI50 (TK-10 renal) [µM] | TGI (TK-10 renal)
1 | Cn1c2c(c3ccc(Cl)c(Cl)c31)C(C#N)C1(CCNCC1)NC2=O (configuration not stated) | 2.4 | 7.88 µM | 0.384 | 1.75 µM | 1.23 | 4.46 µM | 3.1 | 13 µM | 1.23 | 2.7 µM | 2.47 | 9.84 µM | 1.63 | 3.31 µM | 2.24 | 12.7 µM | 3.72 | 12.2 µM | 1.23 | 3.46 µM
2 | COc1ccc(Cn2c3c(cc(OS(=O)(=O)C(F)(F)F)c2=O)Cc2ccccc2-3)cc1 | – | 50 µM and > 100 µM | 53 | 50 µM and > 100 µM | 9.37 | 50 µM and > 100 µM | 23.7 | 50 µM and > 100 µM | 4.18 | 50 µM and > 100 µM | 3.36 | 50 µM and > 100 µM | 5.39 | 50 µM and 32.1 µM | 37.7 | 50 µM and > 100 µM | 3.03 | 50 µM and > 100 µM | 19.5 | 50 µM and > 100 µM
3 | Cc1cc(Cl)ccc1Nc1nc(C(F)(F)F)ccc1C(=O)N/N=C/c1ccc([N+](=O)[O-])cc1 | 0.803 | – | 2.24 | 11.4 µM | 1.48 | 6.93 µM | 3.61 | > 100 µM | – | > 20 µM | 2.37 | > 29.7 µM | 2.6 | 11.7 µM | 1.58 | 4.27 µM | 1.98 | > 32.5 µM | 1.95 | 8.32 µM
4 | C=C1C(=O)O[C@H]2[C@H]1CC/C(COC(=O)c1cc3cc(Cl)ccc3[nH]1)=C\CC[C@@]1(C)O[C@@H]21 | 1 | 2.43 µM | 1.19 | 2.42 µM | 1.21 | 2.56 µM | 2.91 | 10.1 µM | 0.557 | 3.37 µM | 1.4 | 2.91 µM | 1.67 | 3.27 µM | 1.8 | 3.72 µM | 1.45 | 3.78 µM | 1.75 | 3.12 µM
5 | Cc1cc2c(cc1C)N(C(=O)CCl)CCN2C(=O)CCl | 0.45 | 2.42 µM | 1.78 | 4.08 µM | 1.52 | 3.48 µM | 1.81 | 4.1 µM | 0.367 | 1.74 µM | 1.99 | 4.64 µM | 0.657 | 2.29 µM | 0.559 | 1.8 µM | 0.746 | 5.9 µM | 1.79 | 4.76 µM
6 | COc1ccccc1/C=C/C(=O)c1ccccc1 | 3.47 | 14.7 µM | 6.3 | 18.6 µM | 4.69 | 17.9 µM | 12.7 | 26.4 µM | 2.92 | > 36.6 µM | 11 | 28.5 µM | 5.17 | 18.4 µM | 13.3 | 33.1 µM | 5.75 | > 38.2 µM | 21.2 | 36.5 µM
7 | Cc1[nH]nc(C(=O)n2nc(N)c3ccccc32)c1[N+](=O)[O-] | > 63.5 | > 100 µM | > 100 | > 100 µM | > 78.6 | > 100 µM | > 100 | > 100 µM | > 89.4 | > 100 µM | > 100 | > 100 µM | > 100 | > 100 µM | > 100 | > 100 µM | > 100 | > 100 µM | > 100 | > 100 µM
8 | COc1ccc2[nH]c(O)c(C(=Nc3ccc(N(C)C(=O)CN4CCN(C)CC4)cc3)c3ccccc3)c2c1 | 2.65 | 12 µM | 0.847 | 5.92 µM | 1.45 | 8.45 µM | 3.72 | 10.7 µM | 1.45 | 4.99 µM | 3.94 | 16.2 µM | 5.01 | 16.4 µM | 2.27 | 15.6 µM | 11.1 | 29.7 µM | 1.99 | 7.08 µM
9 | COc1ccc2c(c1)/C(=C\c1c(Cl)[nH]c3ccc(OC)cc13)C(=O)N2 | > 100 | > 100 µM | > 100 | > 100 µM | 87.1 | > 100 µM | 20.6 | 64.1 µM | 46.9 | > 100 µM | 84.7 | > 100 µM | 35.2 | > 100 µM | 41.9 | > 100 µM | > 100 | > 100 µM | 44 | > 100 µM
10 | NC(N)=NCCC1OC(=O)C2=C1c1c(O)ccc3nccc(c13)O2 (configuration not stated) | > 100 | > 100 µM | > 100 | > 100 µM | > 100 | > 100 µM | 50.5 | > 100 µM | > 100 | > 100 µM | > 100 | > 100 µM | > 100 | > 100 µM | 89.9 | > 100 µM | > 100 | > 100 µM | > 100 | > 100 µM
11 | COc1ccc(-c2oc3c(OC)c(OC)c(OC)c(OC)c3c(=O)c2OC)cc1OC | – | > 100 µM | – | > 100 µM | – | > 100 µM | – | > 100 µM | – | > 100 µM | – | > 100 µM | – | > 100 µM | – | > 100 µM | – | 74 µM | – | > 100 µM

Source: PubChem BioAssay (NCI)
